Key:
[1] = Inhibition of human GFP-fused ABCG2 expressed in MDCK2 cells assessed as potentiation of mitoxantrone induced cytotoxicity by measuring cell viability after 72 hrs by MTT assay
[2] = Inhibition of human GFP-fused ABCG2 expressed in MDCK2 cells assessed as potentiation of SN-38 induced cytotoxicity by measuring cell viability after 72 hrs by MTT assay

SMILES	EC50 [1]	EC50 [2]
Cc1cc(Nc2ccc(O)c([N+](=O)[O-])c2)nc(-c2ccccc2)n1	22 nM	62 nM
N#Cc1cccc(Nc2nc(-c3cccnc3)nc3ccccc23)c1		85 nM
O=[N+]([O-])c1ccc(Nc2nc(-c3cccnc3)nc3ccccc23)cc1	13 nM	21 nM
